In article PMC10973027 (Molecular Imaging and Biology, 2023):
Values joined by “and” are separate entries in the source; they are usually repeats but may differ in a detail not shown here. Equal values may be shown once. One block for each compound: values may come before it.

Assays:
[1] = background statement, no reference given; cited from earlier work
[2] = Radio-HPLC metabolite analysis of mouse brain homogenate and plasma after IV radiotracer; format: in vivo, male C57 black 6 mice; settings: for polar metabolites in mouse brain: radio-HPLC column eluent front ~1.5-2 min; for % Parent Plasma / % Parent Brain: individual mice; for % Parent Brain: brain homogenate; for share of total brain activity corresponding to the parent / share of total plasma activity corresponding to the parent: approximate
Description: In this preclinical study, two radiolabeling positions were investigated, [^11C-N-CH3]UCB2713 and [^11C]carbonyl UCB2713 ([^11C-CO]UCB2713). The radiolabeling of [^11C-N-CH3]UCB2713 was performed by N-methylation of the corresponding desmethyl precursor with [^11C]methyl iodide and radiolabeling of [^11C-CO]UCB2713 was performed by [^11C]aminocarbonylation of the iodo precursor and the amino precursor with [^11C]carbon monoxide in the presence of Pd(π-cinnamyl) chloride dimer and Xantphos (4,5-bis(diphenylphosphino)-9,9-dimethylxanthene) (Fig. 1b). For additional information on the precursor molecules and radiolabeling methods, see the electronic supplement. A high-performance liquid chromatography (HPLC) metabolite analysis method was developed to quantify the ratio of [^11C-N-CH3]UCB2713 and other unidentified metabolites in plasma and brain homogenate samples. Relative quantification was used to provide the ratio of parent to metabolite in these samples.
Preclinical experiments were conducted on male C57 black 6 mice (N = 10). In vivo experiments were performed on 3 mice and included a PET scan of the brain; ex vivo experiments were performed on all 10 mice and included samples of brain homogenate.
[11C]UCB2713 in vivo/ex vivo Evaluation
Administration of Radioligand and Collecting Samples
Each mouse received an intravenous (IV) bolus injection of [11C]UCB2713 via the jugular vein. The mean (standard deviation [SD]) mass of each radiotracer dose was 1.54 (± 1.03) µg; with a radioactive dose of 17.26 (± 10.88) MBq. At pre-defined time points (40, 60, and 90 min) post-administration of [11C]UCB2713, each mouse was euthanized by exsanguination, followed by cervical dislocation, with blood samples collected in heparin tubes and the brain dissected.
Brain Sample Processing and Preparation of Sample for Analysis
A sample of brain homogenate (1:1, brain:water) was assessed for radioactivity using a γ-counter. Brain homogenate was extracted with a ratio of 1:2 (homogenate:acetonitrile); a ratio of 1:1 was used for the first two animals. The mixture was vortexed for 3 min followed by centrifugation (12000 x g) for 5 min at room temperature. The extraction efficiency was […]
Brain extraction efficiency = counts per minute (CPM) in supernatant (brain extract)/CPM in brain homogenate extracted
To identify the parent-retention time based on the ultraviolet (UV) chromatogram, 20 µL of a solution containing UCB2713 was added to the supernatant (350 µL), followed by 350 µL of 50 mM ammonium formate (adjusted to pH 8), then 0.5 mL of the resulting solution was injected onto the high-performance liquid chromatography (HPLC) column.
Two aliquots of this solution were counted to determine the HPLC recovery as follows:
Recovery efficiency % = = i=1 ∙100 […]
Where “CPM(aliq.)” is the radioactivity measured for the HPLC brain homogenate samples aliquot, “Valiq.” Is the volume of each aliquot , “CPM fi” is the count per minute for fraction “i” and ∑ 30 is the sum of 30 fractions.
Mouse blood samples were centrifuged at 7500 x g for 3 min at 4 °C and plasma was extracted with a ratio of 1:1 (plasma:acetonitrile). The plasma extraction efficiency was […]
Plasma extraction efficiency = CPM in supernatant (plasma extract)/CPM in plasma […]
Samples were prepared as described above for the brain, and two aliquots of solution were counted to determine the HPLC column recovery.
HPLC Procedure and Data Analysis
The HPLC system used a pump, degasser, UV-Vis/Diode Array Detector, and fraction collector. HPLC conditions used were 55% acetonitrile and 45% 100 mM ammonium formate (Method 1), or 48% acetonitrile and 52% 100 mM ammonium formate (adjusted to pH 8; Method 2) as the mobile phase at 5 mL/min and an Agilent XDB-C18 semi-preparative […]
(§1) column (5 micron, 250 x 9.4 mm; Method 2); 30 sample fractions (Method 1) and 36 sample fractions (Method 2) were collected over either a 10- or 12-min run.
A radio-chromatogram was reconstructed from the HPLC fractions collected and the […]

[3] = PET-CT imaging of the mouse brain (time-activity curve, SUV); format: in vivo, male C57 black 6 mice; settings: at 60 min
Description: Preclinical experiments were conducted on male C57 black 6 mice (N = 10). In vivo experiments were performed on 3 mice and included a PET scan of the brain; ex vivo experiments were performed on all 10 mice and included samples of brain homogenate. […]
as §1
A radio-chromatogram was reconstructed from the HPLC fractions collected and the percent of unchanged [11C]UCB2713 was calculated:
[11C]UCB2713 parent fraction = i=n i
Where “cCPM fi” is the radioactivity measured for the HPLC fraction, corrected for the background radioactivity. “n” is first and “m” the last HPLC fraction containing the parent compound (1 ≤ n, m ≤ 30 or 36 [where 30 or 36 are the total number of fractions collected]).
PET-Computed Tomography (CT) Scanning and Image Reconstruction
Three mice were euthanized at the 90 min time point following radioligand injection. Prior to euthanization, these mice were scanned by PET-CT. A dynamic PET scan (Siemens Inveon DPET with docked multi-modality CT scanner) was acquired for each anesthetized mouse following IV administration of [11C]UCB2713. PET images were acquired in list mode and reconstructed with increasing time frames over the duration of the scan to characterize radiotracer kinetics. […]

[4] = Phase 1 PET-CT brain biodistribution study TM0017 (VT, K1, k2); format: in vivo, human
Description: A sample size of 2–10 participants was considered sufficient to meet the objectives, whilst limiting radiation exposure.
The preparation of radiopharmaceuticals and execution of PET-CT scans was performed by radiochemists, physicians, and technologists of Invicro (London, UK). Following local anesthesia, a catheter was inserted into the radial artery by an experienced physician; two venous catheters were also inserted. […] Upon administration, dynamic scanning started immediately and continued for 90 min.
(§2) Arterial input function data were acquired and processed for all PET scans.
Anatomical regions of interest (ROI) were defined via nonlinear deformation of a template MR image and associated neuroanatomical atlas, to match individual participants’ MR images. These ROI included, but were not limited to: parietal lobe, occipital lobe, frontal lobe, temporal lobe, striatum, cerebellum, thalamus, and the brain stem. Participants’ PET images were registered to their MR images, enabling the individualized ROI to be applied to the dynamic emission data to generate regional time activity curves (TACs). For additional information on the generation of regional TACs, see the electronic supplement.
Phase 1 PET Study in Healthy Male Participants (TM0017)
The TAC and total plasma data were fitted to a single compartment model to determine the influx and efflux constants K1 and k2. Because the plasma free fraction estimate is imprecise, we elected to fit the model using the total (free and bound) arterial concentration input function. The parameters of this model are related to the analogous parameters which would be estimated using an accurate estimate of the free arterial concentration using the equations below. We were able therefore to determine and present the K1 and estimated whole brain total distribution volume (VT), with relatively good repeatability between patients, and the equations below could also be used to relate the overall mean estimates back to the ideal total brain to free plasma minzasolmin (V’T) and unidirectional extraction Eu which can be calculated using the free fraction. The blood volume in the model was fixed at 5%. In this model, radiotracer which is free in tissue, non-specifically bound and specifically bound (i.e. to a target of interest) are lumped together in a single compartment, and so interchange between those states is assumed to be rapid.
The arterial input function used represents the total concentration of parent radiotracer in plasma, with no correction for plasma protein binding and the fitted and observed K1 from this model is lower than the rate of uptake from the free plasma concentration (K’1):
To calculate the Eu from the observed K1 from the model we then need to combine […]
The partition coefficient between total brain and total plasma concentration was determined from the fitted K1 and k2 parameters: […]
and the ratio of total concentration in brain to free concentration in plasma ( V’T) could be […]
Supplemental Fig. 1. Example of HPLC chromatograms (radioactive trace, top; UV trace, bottom) obtained during HPLC analysis of [11C-N-CH3]UCB2713 dose. The time delay

[5] = Arterial plasma radio-metabolite analysis during PET scans (TM0017); format: in vivo, human
Source text: as §2

[6] = Safety and tolerability in TM0017 (TEAEs, ECG, vital signs); settings: TM0017, N = 4, IV radiotracer (≤ 10 µg)
Description: Other safety variables recorded include changes in 12-lead electrocardiogram (ECG) assessment and changes in vital signs (heart rate, systolic blood pressure, diastolic blood pressure, respiratory rate, and body temperature). Vital signs were measured in supine position following 5 min of rest and clinically significant abnormalities (according to the investigator) were recorded as an AE. All ECG recordings were performed following 5 min of rest in the supine position, in triplicate, with ≥ 1 min between each recording. If any clinically significant abnormalities occurred, an ECG data specialist was to review the recordings.

[7] = mouse, 40 min post-administration
[8] = Cerebellum, Scan 2 (after oral minzasolmin 360 mg)
[9] = Cerebral white matter, Scan 1 (baseline)
[10] = Cerebral white matter, Scan 2 (after oral minzasolmin 360 mg)
[11] = Frontal lobe, Scan 1 (baseline)
[12] = Frontal lobe, Scan 2 (after oral minzasolmin 360 mg)
[13] = Gray matter, Scan 2 (after oral minzasolmin 360 mg)
[14] = Occipital lobe, Scan 1 (baseline)
[15] = Occipital lobe, Scan 2 (after oral minzasolmin 360 mg)
[16] = Parietal lobe, Scan 1 (baseline)
[17] = Parietal lobe, Scan 2 (after oral minzasolmin 360 mg)
[18] = Striatum, Scan 2 (after oral minzasolmin 360 mg)
[19] = Temporal lobe, Scan 1 (baseline)
[20] = Temporal lobe, Scan 2 (after oral minzasolmin 360 mg)
[21] = mixed effects model, after oral minzasolmin 360 mg

Structure (SMILES): CCCCC(Cc1c[nH]c2ccccc12)NC(=O)c1cnc(N2CCN(C)CC2)s1 (stereo not drawn) [UCB2713]
rate of metabolism compared with the other enantiomer [1]: higher rate of metabolism

parent fraction in brain tissue ([2]; in-vivo metabolism studies in mice): > 95%
Structure (SMILES): CCCC[C@@H](Cc1c[nH]c2ccccc12)N[11C](=O)c1cnc(N2CCN(C)CC2)s1 [[^11C-CO]UCB2713]
polar metabolites in mouse brain [2]: no polar metabolite present in the mouse brain

% Parent Plasma ([2]; 40 min post IV administration): 34.3% and 27.0% and 29.3% and 30.8%
% Parent Plasma ([2]; 60 min post IV administration): 30.6% and 19.5% and 24.6%
% Parent Plasma ([2]; 90 min post IV administration): 9.7% and 26.0% and 17.7%
% Parent Brain ([2]; 40 min post IV administration): 62.0% and 61.1% and 56.0% and 58.2%
% Parent Brain ([2]; 60 min post IV administration): 52.6% and 40.9% and 50.3%
% Parent Brain ([2]; 90 min post IV administration): 34.7% and 29.7% and 22.1%
Kp at 40 min ([2]; male, C57 black 6, mouse, brain/plasma, intravenous, 1.54 µg, mouse, 40 min, read-out: ratio (SD) of parent in the brain versus parent in plasma): 0.77 ± 0.11
Kp at 60 min ([2]; male, C57 black 6, mouse, brain/plasma, intravenous, 1.54 µg, mouse, 60 min, read-out: ratio (SD) of parent in the brain versus parent in plasma): 0.73 ± 0.06
Kp at 90 min ([2]; male, C57 black 6, mouse, brain/plasma, intravenous, 1.54 µg, mouse, 90 min, read-out: ratio (SD) of parent in the brain versus parent in plasma): 0.79 ± 0.69
share of total brain activity corresponding to the parent [2, 7]: approximately 60%
share of total plasma activity corresponding to the parent [2, 7]: approximately 30%
share of total brain activity corresponding to the parent ([2]; mouse, 90 min): approximately 30%
share of total plasma activity corresponding to the parent ([2]; mouse, 90 min): ~20%
standard uptake volume (SUV), whole brain [3]: ~ 0.2
Structure (SMILES): CCCC[C@@H](Cc1c[nH]c2ccccc12)NC(=O)c1cnc(N2CCN([11CH3])CC2)s1 [[^11C-N-CH3]UCB2713]
polar metabolites in mouse brain [2]: significant contribution of brain activity from polar metabolites

Structure (SMILES): CCCC[C@H](Cc1c[nH]c2ccccc12)NC(=O)c1cnc(N2CCN([11CH3])CC2)s1 [[^11C]minzasolmin]
K1 ([4]; Cerebellum, Scan 1 (baseline)): 0.02 mL/cm^3/min
VT ([4]; Cerebellum, Scan 1 (baseline)): 0.522 mL/cm^3
K1 [4, 8]: 0.018 mL/cm^3/min
VT [4, 8]: 0.499 mL/cm^3
K1 [4, 9]: 0.008 mL/cm^3/min
VT [4, 9]: 0.469 mL/cm^3
K1 [4, 10]: 0.007 mL/cm^3/min
VT [4, 10]: 0.523 mL/cm^3
K1 [4, 11]: 0.017 mL/cm^3/min
VT [4, 11]: 0.539 mL/cm^3
K1 [4, 12]: 0.014 mL/cm^3/min
VT [4, 12]: 0.539 mL/cm^3
K1 ([4]; Gray matter, Scan 1 (baseline)): 0.017 mL/cm^3/min
VT ([4]; Gray matter, Scan 1 (baseline)): 0.547 mL/cm^3
K1 [4, 13]: 0.015 mL/cm^3/min
VT [4, 13]: 0.542 mL/cm^3
K1 [4, 14]: 0.019 mL/cm^3/min
VT [4, 14]: 0.548 mL/cm^3
K1 [4, 15]: 0.017 mL/cm^3/min
VT [4, 15]: 0.555 mL/cm^3
K1 [4, 16]: 0.017 mL/cm^3/min
VT [4, 16]: 0.551 mL/cm^3
K1 [4, 17]: 0.015 mL/cm^3/min
VT [4, 17]: 0.574 mL/cm^3
VT before and after dosing with minzasolmin 360 mg ([4]; Scan 1 vs Scan 2): no difference in VT
K1 ([4]; Striatum, Scan 1 (baseline)): 0.015 mL/cm^3/min
VT ([4]; Striatum, Scan 1 (baseline)): 0.545 mL/cm^3
K1 [4, 18]: 0.013 mL/cm^3/min
VT [4, 18]: 0.528 mL/cm^3
K1 [4, 19]: 0.017 mL/cm^3/min
VT [4, 19]: 0.566 mL/cm^3
K1 [4, 20]: 0.015 mL/cm^3/min
VT [4, 20]: 0.557 mL/cm^3
overall mean brain influx rate (K1) ([4]; across each participant and all ROI, from total plasma concentrations): 0.015 mL/cm^3/min
qualitative assessment of the PET images ([4]; following radiotracer injections): distributed throughout the brain
mean difference in VT between Scan 1 and Scan 2 ([4]; least squares mean of mixed model over all regions and participants): -0.008 mL/cm^3
change in K1 after oral dosing [4, 21]: -15.9%
change in k2 after oral dosing [4, 21]: -9.3%
radioactivity in plasma attributable to intact parent radiotracer ([5]; human arterial plasma, at 90 min): ~ 50%
total parent fraction during the radiotracer brain uptake phase ([5]; human plasma, up to 30 min): > 70%
Any TEAEs [6]: 3 (75) n (%)
Deaths [6]: 0 n (%)
Discontinuations due to TEAEs [6]: 0 n (%)
Drug-related TEAEs [6]: 0 n (%)
Serious TEAEs [6]: 0 n (%)
Severe TEAEs [6]: 0 n (%)
TEAEs of special interest [6]: 0 n (%)

Structure (SMILES): CCCC[C@@H](Cc1c[nH]c2ccccc12)N[11C](=O)c1cnc(N2CCNCC2)s1 [desmethyl-[^11C-CO]UCB2713]
amount of desmethyl metabolite observed in mouse brain ([2]; radio-HPLC of brain homogenate after [11C-CO]UCB2713): ~ 2%
